Results taken from PubChem BioAssay AID328 (DTP/NCI, 2004).
Several values for one entry are separate records, joined by “and”; a condition that tells them apart may be missing. Equal entries are not always repeated. Toxic doses and inconclusive results are not listed.

System: BDF1 mice, P388 leukemia ip, median survival T/C
Test: NCI In Vivo Anticancer Drug Screen. Data for tumor model P388 Leukemia (intraperitoneal) in B6D2F1 (BDF1) mice
Conditions: endpoint: median survival time, vehicle: saline, higher = longer survival
Procedure, shortened: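 Compound-treated tumour-bearing mice were compared with vehicle-treated controls. Survival was recorded, and the value is the treated-group measurement divided by the control-group measurement (T/C).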

With `Nc1ncnc2c1ccn2C1OC(CO)C(O)C1O` (stereo not drawn) the T/C (dose: 0.19 mg/kg/injection, schedule: Q03DX005 (ip)) was 100 % of control, the T/C (dose: 0.25 mg/kg/injection, schedule: Q02DX005 (ip)) was 108 % of control and the T/C (dose: 0.25 mg/kg/injection, schedule: Q#A X002 (ip)) was 108 % of control. The T/C (dose: 0.31 mg/kg/injection, schedule: Q01DX010 (ip)) was 122 % of control, the T/C (dose: 0.38 mg/kg/injection, schedule: Q03DX005 (ip)) was 104 % of control and the T/C (dose: 0.5 mg/kg/injection, schedule: Q01DX006 (iv)) was 95 % of control. The T/C (dose: 0.5 mg/kg/injection, schedule: Q01DX010 (oral)) was 109 % of control, the T/C (dose: 0.5 mg/kg/injection, schedule: Q02DX004 (im)) was 104 % of control and the T/C (dose: 0.5 mg/kg/injection, schedule: Q02DX005 (ip)) was 112 % of control. For the same compound, the T/C (dose: 0.5 mg/kg/injection, schedule: Q04DX003 (ip)) was 112 % of control, the T/C (dose: 0.5 mg/kg/injection, schedule: Q07DX002 (ip)) was 112 % of control and the T/C (dose: 0.5 mg/kg/injection, schedule: Q#A X002 (ip)) was 112 % of control. For the same compound, the T/C (dose: 0.75 mg/kg/injection, schedule: Q03DX005 (ip)) was 118 % of control, the T/C (dose: 1.0 mg/kg/injection, schedule: Q01DX001 (ip)) was 108 % of control and the T/C (dose: 1.0 mg/kg/injection, schedule: Q01DX006 (iv)) was 95 % of control. For the same compound, the T/C (dose: 1.0 mg/kg/injection, schedule: Q01DX010 (ip)) was 150 % of control, the T/C (dose: 1.0 mg/kg/injection, schedule: Q01DX010 (oral)) was 100 % of control and the T/C (dose: 1.0 mg/kg/injection, schedule: Q01DX010 (sc)) was 91 % of control and 104 % of control. For the same compound, the T/C (dose: 1.0 mg/kg/injection, schedule: Q02DX004 (im)) was 91 % of control, the T/C (dose: 1.0 mg/kg/injection, schedule: Q04DX003 (ip)) was 116 % of control and the T/C (dose: 1.0 mg/kg/injection, schedule: Q07DX002 (ip)) was 116 % of control. For the same compound, the T/C (dose: 1.5 mg/kg/injection, schedule: Q03DX005 (ip)) was 154 % of control, the T/C (dose: 1.5 mg/kg/injection, schedule: Q03DX010 (ip)) was 172 % of control and the T/C (dose: 1.75 mg/kg/injection, schedule: Q07DX002 (ip)) was 150 % of control. The T/C (dose: 2.0 mg/kg/injection, schedule: Q01DX001 (ip)) was 116 % of control, the T/C (dose: 2.0 mg/kg/injection, schedule: Q01DX006 (iv)) was 91 % of control and the T/C (dose: 2.0 mg/kg/injection, schedule: Q01DX010 (im)) was 104 % of control. For the same compound, the T/C (dose: 2.0 mg/kg/injection, schedule: Q01DX010 (ip)) was 108 % of control, the T/C (dose: 2.0 mg/kg/injection, schedule: Q01DX010 (oral)) was 100 % of control and the T/C (dose: 2.0 mg/kg/injection, schedule: Q01DX010 (sc)) was 100 % of control and 113 % of control. The T/C (dose: 2.0 mg/kg/injection, schedule: Q02DX004 (im)) was 100 % of control, the T/C (dose: 2.0 mg/kg/injection, schedule: Q04DX003 (ip)) was 120 % of control and the T/C (dose: 2.0 mg/kg/injection, schedule: Q07DX002 (ip)) was 116 % of control. For the same compound, the T/C (dose: 2.0 mg/kg/injection, schedule: Q#A X002 (ip)) was 95 % of control, the T/C (dose: 3.0 mg/kg/injection, schedule: Q03DX010 (ip)) was 159 % of control and the T/C (dose: 4.0 mg/kg/injection, schedule: Q01DX010 (im)) was 104 % of control. For the same compound, the T/C (dose: 4.0 mg/kg/injection, schedule: Q01DX010 (sc)) was 112 % of control and 113 % of control, the T/C (dose: 4.0 mg/kg/injection, schedule: Q02DX004 (im)) was 100 % of control and the T/C (dose: 4.0 mg/kg/injection, schedule: Q04DX003 (ip)) was 100 % of control. The T/C (dose: 4.0 mg/kg/injection, schedule: Q07DX002 (ip)) was 116 % of control, the T/C (dose: 7.0 mg/kg/injection, schedule: Q01DX001 (ip)) was 150 % of control and the T/C (dose: 8.0 mg/kg/injection, schedule: Q01DX001 (oral)) was 92 % of control. For the same compound, the T/C (dose: 8.0 mg/kg/injection, schedule: Q01DX010 (im)) was 150 % of control, the T/C (dose: 8.0 mg/kg/injection, schedule: Q01DX010 (oral)) was 91 % of control and the T/C (dose: 8.0 mg/kg/injection, schedule: Q01DX010 (sc)) was 118 % of control. For the same compound, the T/C (dose: 16.0 mg/kg/injection, schedule: Q01DX001 (oral)) was 92 % of control, the T/C (dose: 28.0 mg/kg/injection, schedule: Q01DX001 (ip)) was 118 % of control and the T/C (dose: 31.5 mg/kg/injection, schedule: Q#A X020 (ip)) was 104 % of control. For the same compound, the T/C (dose: 62.5 mg/kg/injection, schedule: Q#A X020 (ip)) was 109 % of control, the T/C (dose: 125.0 mg/kg/injection, schedule: Q#A X020 (ip)) was 118 % of control and the T/C (dose: 63.0 micrograms/kg/injection, schedule: Q01DX010 (ip)) was 109 % of control. The T/C (dose: 125.0 micrograms/kg/injection, schedule: Q01DX010 (ip)) was 104 % of control and the T/C (dose: 250.0 micrograms/kg/injection, schedule: Q01DX010 (ip)) was 104 % of control.
